Measurements taken from US20080182851A1, “ACETYLENE DERIVATIVES AS STEAROYL COA DESATURASE INHIBITORS” (Glenmark Pharmaceuticals S.A., priority 2006, published 2008).

biological target: T1, human SCD1 enzyme (Homo sapiens, UniProt O00767); test: Tritiated water release assay (conversion of radiolabeled stearoyl-CoA to oleoyl-CoA); type: biochemical; details: 10 μM concentration of test compounds; microsomal SCD1, 3H stearoyl CoA, 37° C. 30 minutes; percent of control reaction; read-out: % Inhibition
T1 sequence (O00767 1-359): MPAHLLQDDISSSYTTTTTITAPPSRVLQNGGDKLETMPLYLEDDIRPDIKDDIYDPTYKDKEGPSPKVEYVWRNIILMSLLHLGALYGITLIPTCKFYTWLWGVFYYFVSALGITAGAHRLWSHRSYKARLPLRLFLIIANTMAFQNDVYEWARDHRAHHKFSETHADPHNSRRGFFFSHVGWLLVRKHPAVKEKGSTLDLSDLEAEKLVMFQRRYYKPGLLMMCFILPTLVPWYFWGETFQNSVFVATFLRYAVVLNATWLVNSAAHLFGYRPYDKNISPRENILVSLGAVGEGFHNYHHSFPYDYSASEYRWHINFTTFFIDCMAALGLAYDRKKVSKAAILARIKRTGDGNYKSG
Procedure: The in-vitro activity of the compounds of the present invention against stearoyl coenzyme desaturase was determined by following conversion of radiolabeled-stearoyl-CoA to oleoyl-CoA using human SCD1 enzyme using a previously published assay procedure with some modifications (Barbara R Talamo and Konrad Bloch, Analytical Biochemistry, 1969, 29, 300-304). This assay protocol is only illustrative and is not meant to limit to the scope of the present invention.
In this assay the microsomal SCD1 enzyme desaturates its substrate, Stearoyl CoA (purchased from American Radiochemicals Ltd.) which is tritiated at C9 and C10 positions. Test compounds were dissolved in dimethylsulfoxide and tested at 10 μM final concentration. Before substrate addition, the test compound or standard reference compound (conjugated linoleic acid at 100 μM final concentration) were pre-incubated in reaction buffer with the enzyme for 10 minutes at 30° C. with shaking. Reaction buffer was prepared as described in literature (Obukowicz et al. JPET, 1998, 287, 157-166) except that the MgCl2, ATP (purchased from Sigma) and CoA (purchased from Sigma) concentrations were changed to 4.9 mM, 7.2 mM and 0.54 mM respectively. The desaturation reaction was initiated by addition of 0.5 μCi of ^3H stearoyl CoA and incubated at 37° C. for 30 minutes with shaking. A control reaction was set without any test compound/reference inhibitor to capture maximum enzymatic activity in the assay. Inhibition of enzyme activity was calculated as a percent of this control reaction giving maximum catalysis and the results are given in Table 5.
Table 5: Tritiated water release assay at 10 μM substrate concentration *Conjugated Linoleic acid was used as a reference standard

| Compound | inhibition at 10 µM |
| --- | --- |
| COc1ccc(C#Cc2ccc(N3CCN(C(=O)c4ccccc4C(F)(F)F)CC3)nc2)cc1 [Example 30, 4-{5-[2-(4-Methoxyphenyl)-1-ethynyl]-2-pyridyl}piperazino-2-trifluoromethylphenyl methanone] | 26% |
| CC(C)CCn1ccnc1C#Cc1ccc(N2CCN(C(=O)c3ccccc3C(F)(F)F)CC2)nc1 [Example 48] | 22% |
| O=C(c1ccccc1C(F)(F)F)N1CCN(c2ncc(C#Cc3ccc(O)cc3)cn2)CC1 [Example 42, 4-{5-[2-(4-Hydroxyphenyl)-1-ethynyl]-2-pyrimidinyl}piperazino-2-trifluoromethyl-phenylmethanone] | 92% |
| O=C(c1ccccc1C(F)(F)F)N1CCN(c2ccc(C#Cc3ccc(O)c(F)c3)cn2)CC1 [Example 24, 1-{5-[(3-Fluoro-4-hydroxyphenyl)ethynyl]-2-pyridyl}piperazin-4-yl-(2-trifluoromethylphenyl)methanone] | 79% |
| CC(C)(C)C#Cc1ccc(N2CCN(C(=O)c3cc(Cl)ccc3Cl)CC2)nc1 [Example 19, 2,5-Dichlorophenyl-4-[5-(3,3-dimethyl-1-butynyl)-2-pyridyl]piperazinomethanone] | 14% |
| COc1cccc(C#Cc2ccc(N3CCN(C(=O)c4cc(Cl)ccc4Cl)CC3)nc2)c1 [Example 31, 2,5-Dichlorophenyl-4-{5-[2-(3-methoxyphenyl)-1-ethynyl]-2-pyridyl}piperazino-methanone] | 21% |
| O=C(c1cc(Cl)ccc1Cl)N1CCN(c2ccc(C#Cc3cnccn3)cn2)CC1 [Example 46] | 29% |
| Oc1ccc(C#Cc2ccc(N3CCC(Oc4ccccc4F)CC3)nn2)cc1 [Example 76, 4-(2-{6-[4-(2-Fluorophenoxy)piperidino]-3-pyridazinyl}-1-ethynyl)phenol] | 100% |
| CC(C)(O)C#Cc1cnc(N2CCN(C(=O)c3ccccc3C(F)(F)F)CC2)nc1 [Example 4, 4-[5-(3-Hydroxy-3-methyl-1-butynyl)-2-pyrimidinyl]piperazino-2-trifluoromethylphenyl-methanone] | 22% |
| Fc1ccc(OCC#Cc2ccc(N3CCN(c4ccc(C(F)(F)F)cn4)CC3)nc2)cc1 [Example 14, 1-{5-[3-(4-Fluorophenoxy)prop-1-yn-1-yl]-2-pyridyl}-4-(5-trifluoromethylpyridin-2-yl)piperazine] | 35% |
| O=C(c1ccccc1C(F)(F)F)N1CCN(c2ccc(C#CC(O)c3ccccc3)cn2)CC1 (stereo not drawn) [Example 8, 4-[5-(3-Hydroxy-3-phenyl-1-propynyl}-2-pyridyl}piperazino-2-trifluoromethylphenyl-methanone] | 42% |
| N#Cc1ccc(OCC#Cc2ccc(N3CCN(C(=O)c4ccccc4C(F)(F)F)CC3)nc2)nc1 [Example 12] | 11% |
| O=C(c1cc(Cl)ccc1Cl)N1CCN(c2ccc(C#CCO)cn2)CC1 [Example 2, 4-[5-(3-Hydroxy-1-propynyl)-2-pyridyl]piperazino-2,5-dichlorophenylmethanone] | 57% |
| O=C(c1ccccc1C(F)(F)F)N1CCN(c2ncc(C#Cc3ccc(-n4cccc4)cc3)cn2)CC1 [Example 52] | 39% |
| O=C(c1ccccc1C(F)(F)F)N1CCN(c2ccc(C#CCO)nn2)CC1 [Example 3, 4-[6-(3-Hydroxy-1-propynyl)-3-pyridazinyl]piperazino-2-trifluoromethylphenyl-methanone] | 51% |
| O=C(c1ccccc1C(F)(F)F)N1CCN(c2ccc(C#Cc3cccc(CO)c3)cn2)CC1 [Example 33, 4-{5-[2-(3-Hydroxymethylphenyl)-1-ethynyl]-2-pyridyl}piperazino-2-trifluoromethyl-phenylmethanone] | 20% |
| O=C(c1ccccc1C(F)(F)F)N1CCN(c2ccc(C#Cc3cccc(O)c3)cn2)CC1 [Example 25, 4-{5-[2-(3-Hydroxyphenyl)-1-ethynyl]-2-pyridyl}piperazino-2-trifluoromethylphenyl methanone] | 97% |
| O=C(c1cc(Cl)ccc1Cl)N1CCN(c2ccc(C#Cc3ccccc3)cn2)CC1 [Example 21, 2,5-Dichlorophenyl-4-[5-(2-phenyl-1-ethynyl)-2-pyridyl]piperazinomethanone] | 40% |
| CCOC(=O)c1ccc(C#Cc2ccc(N3CCN(C(=O)c4ccccc4C(F)(F)F)CC3)nc2)nc1 [Example 44] | 37% |
| O=C(O)c1cc(C#Cc2ccc(N3CCN(C(=O)c4ccccc4C(F)(F)F)CC3)nc2)ccc1O [Example 35, 2-Hydroxy-5-(2-{6-[4-(2-trifluoromethylbenzoyl)piperazino]-3-pyridyl}-1-ethynyl)-benzoic acid] | 36% |
| O=C(c1ccccc1C(F)(F)F)N1CCN(c2ccc(C#CCOc3ccc(O)cc3)cn2)CC1 [Example 13] | 92% |
| CCCC#Cc1ccc(N2CCN(C(=O)c3ccccc3C(F)(F)F)CC2)nc1 [Example 17, 4-[5-(1-Pentynyl)-2-pyridyl]piperazino-2-trifluoromethylphenylmethanone] | 40% |
| O=C(c1ccccc1C(F)(F)F)N1CCN(c2ccc(C#Cc3ccccc3)cn2)CC1 [Example 20, 4-[5-(2-Phenyl-1-ethynyl)-2-pyridyl]piperazino-2-trifluoromethylphenylmethanone] | 38% |

Other lines, results leading:

| inhibition at 10 µM | Compound |
| --- | --- |
| 47% | N#Cc1cccc(C#Cc2ccc(N3CCN(C(=O)C4CCCC4)CC3)nn2)c1 [Example 54, 3-({6-[4-(Cyclopentylcarbonyl)piperazin-1-yl]pyridazin-3-yl}ethynyl)benzonitrile] |
| 24% | [O-][n+]1cccc(C#Cc2ccc(N3CCC(Oc4ccccc4F)CC3)nn2)c1 [Example 95] |
| 96% | Oc1cccc(C#Cc2ccc(N3CCN(CC4CCCCC4)CC3)nn2)c1 [Example 57, 3-({6-[4-(Cyclohexylmethyl)piperazin-1-yl]pyridazin-3-yl}ethynyl)phenol] |
| 100% | Oc1cccc(C#Cc2ccc(N3CCC(Oc4ccccc4C(F)(F)F)CC3)nn2)c1 [Example 91, 3-(2-{6-[4-(2-Trifluoromethylphenoxy)piperidino]-3-pyridazinyl}-1-ethynyl)phenol] |
| 96% | Oc1ccc(C#Cc2ccc(N3CCC(Oc4cc(Cl)ccc4Cl)CC3)nn2)cc1 [Example 93, 4-[{6-[4-(2,5-Dichlorophenoxy)piperidin-1-yl]pyridazin-3-yl}ethynyl]phenol] |
| 43% | Fc1ccccc1OC1CCN(c2ccc(C#Cc3ccc(OCCN4CCCCC4)cc3)nn2)CC1 [Example 78] |
| 95% | CC(=O)Oc1cccc(C#Cc2ccc(N3CCC(Oc4ccccc4C(F)(F)F)CC3)nn2)c1 [Example 90, 3-(2-{6-[4-(2-Trifluoromethylphenoxy)piperidino]-3-pyridazinyl}-1-ethynyl)phenyl acetate] |
| 96% | Oc1ccc(C#Cc2ccc(N3CCC(Nc4ccccc4F)CC3)nn2)cc1 [Example 102, 4-{6-[4-(2-Fluorophenylamino)piperidin-1-yl]pyridazin-3-yl}ethynylphenol] |
| 82% | CC(=O)Oc1ccc(C#Cc2ccc(N3CCC(Nc4ccccc4F)CC3)nn2)cc1 [Example 101] |
| 93% | Oc1ccc(C#Cc2ccc(N3CCC(O)(Cc4cc(Cl)ccc4Cl)CC3)nn2)cc1 [Example 65, 1-{6-[(4-Hydroxyphenyl)ethynyl]pyridazin-3-yl}-4-(2,5-dichlorobenzyl)piperidin-4-ol] |
| 37% | Fc1ccccc1OC1CCN(c2ccc(C#Cc3cccnc3)cn2)CC1 [Example 73, 4-(2-Fluorophenoxy)-1-{5-[2-(3-pyridyl)-1-ethynyl]-2-pyridyl}piperidine] |
| 37% | Fc1ccccc1OC1CCN(c2ccc(C#Cc3ccc(OCCN4CCOCC4)cc3)nn2)CC1 [Example 79] |
| 38% | Fc1ccccc1OC1CCN(c2ccc(C#Cc3ccc4c(c3)OCO4)cn2)CC1 [Example 72] |
| 6% | Fc1ccccc1CN1CCN(c2ccc(C#CC3CCCCO3)nn2)CC1 (stereo not drawn) [Example 58] |
| 92% | CC(=O)Oc1cccc(C#Cc2ccc(N3CCC(Oc4ccccc4F)C3)nn2)c1 (stereo in doubt) [Example 68, 3-(2-{6-[(3S)-3-(2-Fluorophenoxy)azolan-1-yl]-3-pyridazinyl}-1-ethynyl)phenyl acetate] |
| 97% | CC(=O)Oc1ccc(C#Cc2ccc(N3CCC(O)(Cc4ccccc4)CC3)nn2)cc1 [Example 61, 4-{[6-(4-Benzyl-4-hydroxypiperidin-1-yl)pyridazin-3-yl]ethynyl}phenyl acetate] |
